Measurements reported in US12485140B2, “Transmission prevention of viruses with application of antiseptic composition” (Solventum Intellectual Properties Company, priority 2019, dated 2025).

Key:
[1] = system: Vero 76 cells; details: African green monkey
[2] = system: SARS-CoV-2 virus; assay: In vitro viricidal assay against SARS-CoV-2 (CCID50 end-point titer on Vero 76 cells); details: 22 ± 2° C.; for Log Reduction Value (LRV): compared to the virus control; for Virus Titer: mean of 3 replicates

CCO [CE19, Ethanol] was tested, and the “dilutions of the neutralized sample showing toxicity toward Vero 76 cells” value [1] was 1/10 dilution, the “Log Reduction Value (LRV)” value ([2]; incubation time 0.5 min) was 2.4 and the “Virus Titer” value ([2]; incubation time 0.5 min) was <1.7 Log10 CCID50 of virus per mL. The “Log Reduction Value (LRV)” value ([2]; incubation time 1 min) was 2.1, the “Virus Titer” value ([2]; incubation time 1 min) was <1.7 Log10 CCID50 of virus per mL and the “Log Reduction Value (LRV)” value ([2]; incubation time 2 min) was 2.3. The “Virus Titer” value ([2]; incubation time 2 min) was <1.7 Log10 CCID50 of virus per mL.
